Measured values taken from US8614236B2 (University of Washington, priority 2006, dated 2013).

Experiments:
Assay type in all cases: in vivo
[1] = system: Beagle dogs; assay: Dog study: arterial blood gases, ventilation and acid-base status in normoxia and hypoxia
From the text: The dogs were kept under highly standardized conditions and received a standardized diet five days before the experiments. […] To permit spontaneous breathing through a low resistance circuit, a face mask was attached, which enclosed the dog's snout in a leak proof fashion. This custom made mask is equipped with a 2.5 cm ID connector to connect it to a ventilator set to CPAP mode (3 4 cmH20) (Servo900C; Siemens-Elema, Erlangen/Germany).
(§1) Six dogs were studied in five different protocols in randomized order:
5) Ethoxzolamide (Sigma-Aldrich, Steinheim/Germany) intravenously: Bolus ethoxzolamide (1 mg/kg), followed by a continuous infusion of 1 mg·kg^−1·h^−1.
The hemodynamic measurements (arterial blood pressure, heart rate, central venous pressure, pulmonary artery pressure, pulmonary capillary wedge pressure), minute ventilation, renal function data, time points for blood samples for blood gases, actual bicarbonate, base excess, plasma electrolytes and hormones, measurements of plasma and urinary values were according to former studies.
(§2) Values are given as means±SEM (n=6). For intra-group comparisons a general linear model of analysis of variance (GLM-ANOVA) for repeated measures was applied (NCSS97/PASS 2000, Saugus/MA, USA). Post-hoc testing of means was performed with Student's t-test. Level of significance for error of first order was adjusted according to Holm's procedure. Statistical significance was assumed at p<0.05.

[2] = system: Beagle dogs; assay: Dog study: pulmonary and systemic hemodynamics, hypoxic pulmonary vasoconstriction; conditions: for MPAP and PVR during hypoxia (words): iv bolus + continuous infusion (AZ, benzolamide 2 mg/kg + 2 mg/kg/h; ethoxzolamide 1 mg/kg + 1 mg/kg/h)
Protocol: (§3) A total of 30 experiments were performed on six female Beagle dogs (body wt 14.3±0.3 kg). The dogs were kept under highly standardized conditions and received a standardized diet five days before the experiments. The preparation and catheterization of the conscious dog were performed according to former experiments as in Höhne C., et al., J Appl Physiol (2004), which is hereby incorporated by reference in its entirety. To permit spontaneous breathing through a low resistance circuit, a face mask was attached, which enclosed the dog's snout in a leak proof fashion. This custom made mask is equipped with a 2.5 cm ID connector to connect it to a ventilator set to CPAP mode (3 4 cmH20) (Servo900C; Siemens-Elema, Erlangen/Germany).
as §1
(§4) 4) Benzolamide intravenously: Bolus (2 mg/kg), followed by a continuous infusion of 2 mg·kg^−1·h^−1, a dosage which inhibits only renal and vascular endothelial extracellular CA, without affecting red cell CA as in Travis D. M., et al. J Pharmacol Exp Ther (1964), which is hereby incorporated by reference in its entirety. 5) Ethoxzolamide (Sigma-Aldrich, Steinheim/Germany) intravenously: Bolus ethoxzolamide (1 mg/kg), followed by a continuous infusion of 1 mg·kg^−1·h^−1.
(§5) In control experiments, the dogs breathed room air (21% O2, 79% N2; normoxia) for one hour, followed by breathing a gas mixture containing 10% O2 and 90% N2 for two hours (hypoxia). The time course was the same for the CA inhibitor experiments, but F1O2 was reduced to 0.09 during the hypoxia period to match the arterial and alveolar PO2 of the control dogs, which otherwise would have been higher on 10% O2 as a result of the known ventilatory stimulant effect of all CA inhibitors. See Höhne C., et al., J Appl Physiol 97:515-521 (2004), which is hereby incorporated by reference in its entirety. The hemodynamic measurements (arterial blood pressure, heart rate, central venous pressure, pulmonary artery pressure, pulmonary capillary wedge pressure), minute ventilation, renal function data, time points for blood samples for blood gases, actual bicarbonate, base excess, plasma electrolytes and hormones, measurements of plasma and urinary values were according to former studies. See Höhne C., et al., J Appl Physiol 90:1842-1848 (2001), which is hereby incorporated by reference in its entirety.
as §2

[3] = system: Beagle dogs; assay: Dog study: plasma hormones, electrolytes and renal function; conditions: for plasma renin activity: both acetazolamide protocols (iv, po)
Protocol: as §3, §1, §4, §5, §2

[4] = iv bolus + continuous infusion, hypoxia 2nd h
[5] = iv bolus + continuous infusion, hypoxia 3rd h
[6] = iv bolus + continuous infusion, normoxia 1st h
[7] = po 5 mg/kg 12 and 1 hr before, hypoxia 2nd h
[8] = po 5 mg/kg 12 and 1 hr before, hypoxia 3rd h
[9] = po 5 mg/kg 12 and 1 hr before, normoxia 1st h

## CC(=O)Nc1nnc(S(N)(=O)=O)s1 [AZ, acetazolamide]
[1]; [4]
  BEa, arterial base excess: -4.0 ± 0.3 mM
  HCO3a, arterial actual bicarbonate concentration: 19.0 ± 0.4 mM
  PaCO2, arterial carbon dioxide tension: 30 ± 1 Torr
  PaO2, arterial oxygen tension: 37 ± 1 Torr
  VE, minute ventilation: 5.8 ± 0.6 L/min
[1]; [5]
  BEa, arterial base excess: -5.6 ± 0.5 mM
  HCO3a, arterial actual bicarbonate concentration: 17.5 ± 0.5 mM
  PaCO2, arterial carbon dioxide tension: 28 ± 1 Torr
  PaO2, arterial oxygen tension: 39 ± 1 Torr
  VE, minute ventilation: 7.0 ± 0.6 L/min
[1]; [6]
  BEa, arterial base excess: -3.1 ± 0.5 mM
  HCO3a, arterial actual bicarbonate concentration: 20.9 ± 0.6 mM
  PaCO2, arterial carbon dioxide tension: 34 ± 1 Torr
  PaO2, arterial oxygen tension: 106 ± 3 Torr
  VE, minute ventilation: 4.0 ± 0.3 L/min
[1]; [7]
  BEa, arterial base excess: -5.8 ± 0.4 mM
  HCO3a, arterial actual bicarbonate concentration: 17.6 ± 0.6 mM
  PaCO2, arterial carbon dioxide tension: 29 ± 1 Torr
  PaO2, arterial oxygen tension: 37 ± 1 Torr
  VE, minute ventilation: 5.9 ± 0.2 L/min
[1]; [8]
  BEa, arterial base excess: -6.5 ± 0.4 mM
  PaCO2, arterial carbon dioxide tension: 27 ± 1 Torr
  PaO2, arterial oxygen tension: 38 ± 1 Torr
  VE, minute ventilation: 6.1 ± 0.2 L/min
[1]; [9]
  BEa, arterial base excess: -7.2 ± 0.6 mM
  HCO3a, arterial actual bicarbonate concentration: 17.1 ± 0.7 mM
  PaCO2, arterial carbon dioxide tension: 32 ± 1 Torr
  PaO2, arterial oxygen tension: 108 ± 2 Torr
  VE, minute ventilation: 4.5 ± 0.3 L/min
  pHa, arterial pH: 7.34 ± 0.01
[2]
  MPAP and PVR during hypoxia (words): did not change
[2]; listed as acetazolamide
  MPAP and PVR during hypoxia (words): still inhibited
[2]; [4]
  CO, cardiac output: 2.6 ± 0.2 L/min
  CVP, central venous pressure: 2.6 ± 0.6 cmH2O
  HR, heart rate: 92 ± 9 beats/min
  MAP, mean arterial pressure: 109 ± 7 mmHg
  MPAP, mean pulmonary arterial pressure: 15 ± 1 mmHg
  PCWP, pulmonary capillary wedge pressure: 3.5 ± 0.3 cm H2O
  SVR, systemic vascular resistance: 3348 ± 260 dyn · s^1 · cm^−5
[2]; [5]
  CO, cardiac output: 2.4 ± 0.1 L/min
  CVP, central venous pressure: 1.8 ± 0.5 cmH2O
  HR, heart rate: 98 ± 8 beats/min
  MAP, mean arterial pressure: 111 ± 6 mmHg
  MPAP, mean pulmonary arterial pressure: 14 ± 1 mmHg
  PCWP, pulmonary capillary wedge pressure: 3.3 ± 0.2 cm H2O
  SVR, systemic vascular resistance: 3675 ± 241 dyn · s^1 · cm^−5
[2]; [6]
  CO, cardiac output: 2.4 ± 0.2 L/min
  CVP, central venous pressure: 1.8 ± 0.3 cmH2O
  HR, heart rate: 70 ± 5 beats/min
  MAP, mean arterial pressure: 97 ± 4 mmHg
  MPAP, mean pulmonary arterial pressure: 14 ± 0 mmHg
  PCWP, pulmonary capillary wedge pressure: 3.5 ± 0.6 cm H2O
  SVR, systemic vascular resistance: 3347 ± 260 dyn · s^1 · cm^−5
[2]; po 5 mg/kg 12 and 1 hr before
  PVR during hypoxia: did not change
[2]; po 5 mg/kg 12 and 1 hr before, after 2 hrs of hypoxia
  MPAP during hypoxia: increased slightly
[2]; [7]
  CO, cardiac output: 2.8 ± 0.2 L/min
  CVP, central venous pressure: 1.5 ± 0.2 cmH2O
  HR, heart rate: 101 ± 9 beats/min
  MAP, mean arterial pressure: 110 ± 5 mmHg
  MPAP, mean pulmonary arterial pressure: 17 ± 1 mmHg
  PCWP, pulmonary capillary wedge pressure: 3.3 ± 0.3 cm H2O
  SVR, systemic vascular resistance: 3238 ± 326 dyn · s^1 · cm^−5
[2]; [8]
  CO, cardiac output: 2.7 ± 0.3 L/min
  CVP, central venous pressure: 1.3 ± 0.2 cmH2O
  HR, heart rate: 103 ± 7 beats/min
  MAP, mean arterial pressure: 108 ± 7 mmHg
  MPAP, mean pulmonary arterial pressure: 17 ± 2 mmHg
  PCWP, pulmonary capillary wedge pressure: 3.6 ± 0.4 cm H2O
  SVR, systemic vascular resistance: 3270 ± 380 dyn · s^1 · cm^−5
[2]; [9]
  CO, cardiac output: 2.5 ± 0.2 L/min
  CVP, central venous pressure: 2.0 ± 0.3 cmH2O
  HR, heart rate: 78 ± 5 beats/min
  MAP, mean arterial pressure: 99 ± 1 mmHg
  MPAP, mean pulmonary arterial pressure: 12 ± 1 mmHg
  PCWP, pulmonary capillary wedge pressure: 3.5 ± 0.3 cm H2O
  SVR, systemic vascular resistance: 3301 ± 320 dyn · s^1 · cm^−5
[3]; hypoxia
  plasma renin activity: 5 to 5.6 ng/mL/h
[3]; normoxia
  plasma renin activity: 2.9 to 3.2 ng/mL/h
[3]; iv 2 mg/kg + 2 mg/kg/h, non-significant
  reduction of glomerular filtration rate vs controls: 12%
[3]; [4]
  GFR, glomerular filtration rate: 3.3 ± 0.1 mL/min/kg
  PK, plasma potassium concentration: 2.8 ± 0.1 mM
  UV, urine volume: 0.161 ± 0.022 mL/min/kg
[3]; [5]
  GFR, glomerular filtration rate: 3.4 ± 0.2 mL/min/kg
  PK, plasma potassium concentration: 2.8 ± 0.1 mM
  UV, urine volume: 0.071 ± 0.01 mL/min/kg
[3]; [6]
  GFR, glomerular filtration rate: 3.4 ± 0.1 mL/min/kg
  PK, plasma potassium concentration: 3.0 ± 0.1 mM
  UV, urine volume: 0.099 ± 0.013 mL/min/kg
[3]; [7]
  GFR, glomerular filtration rate: 3.4 ± 0.3 mL/min/kg
  PK, plasma potassium concentration: 2.9 ± 0.1 mM
  UKV, urinary potassium concentration: 1.6 ± 0.3 µmol/min/kg
  UV, urine volume: 0.083 ± 0.024 mL/min/kg
  urinary excretion rate (potassium in 2.2, sodium in 2.3): 1.6 ± 0.3 µmol/min/kg
[3]; [8]
  GFR, glomerular filtration rate: 3.3 ± 0.2 mL/min/kg
  PK, plasma potassium concentration: 2.9 ± 0.1 mM
  UKV, urinary potassium concentration: 1.6 ± 0.4 µmol/min/kg
  UV, urine volume: 0.048 ± 0.011 mL/min/kg
  urinary excretion rate (potassium in 2.2, sodium in 2.3): 1.3 ± 0.1 µmol/min/kg
[3]; [9]
  GFR, glomerular filtration rate: 3.1 ± 0.2 mL/min/kg
  PK, plasma potassium concentration: 2.9 ± 0.1 mM
  UV, urine volume: 0.057 ± 0.011 mL/min/kg
